The source of these data is US10144746B2 (GLOBAL BLOOD THERAPEUTICS, INC., priority 2015, dated 2018).

The target in the experiment is Human plasma kallikrein (Homo sapiens (Human), UniProt P03952). Put plainly: In vitro plasma kallikrein inhibition assay (chromogenic substrate D-Pro-Phe-Arg-pNa, absorbance at 405 nm, IC50 determination). Format: biochemical. To be noted: read-out: KLKB1 pIC50 (converted).
Chain of Human plasma kallikrein (P03952 391-638): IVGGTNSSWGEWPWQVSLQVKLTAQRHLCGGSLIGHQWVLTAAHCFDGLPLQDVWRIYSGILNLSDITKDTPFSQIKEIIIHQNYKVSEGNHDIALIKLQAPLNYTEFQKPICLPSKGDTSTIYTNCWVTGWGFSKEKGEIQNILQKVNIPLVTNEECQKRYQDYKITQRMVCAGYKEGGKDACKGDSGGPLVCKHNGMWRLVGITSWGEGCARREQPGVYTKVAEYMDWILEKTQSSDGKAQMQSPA
Chain of Human plasma kallikrein (P03952 20-390 partner): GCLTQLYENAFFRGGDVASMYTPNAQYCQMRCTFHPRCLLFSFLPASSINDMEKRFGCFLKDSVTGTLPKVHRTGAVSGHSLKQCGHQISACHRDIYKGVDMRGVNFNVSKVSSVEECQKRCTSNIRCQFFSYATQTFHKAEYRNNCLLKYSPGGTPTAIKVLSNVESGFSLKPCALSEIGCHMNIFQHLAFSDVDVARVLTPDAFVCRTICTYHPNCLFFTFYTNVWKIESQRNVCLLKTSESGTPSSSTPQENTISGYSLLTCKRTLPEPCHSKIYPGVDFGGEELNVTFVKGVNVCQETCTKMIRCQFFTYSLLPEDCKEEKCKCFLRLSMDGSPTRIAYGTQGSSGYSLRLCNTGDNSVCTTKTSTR

As for `Cc1cc(N)nc(C)c1CNC(=O)c1ccc2c(c1)[C@@H]1O[C@H]2c2ccc(CN3CCCN(C)C3=O)cc21` (single isomer, unassigned) [Example 235], the IC50 is 12.9 nM.

For `N=C(N)c1ccc(CNC(=O)c2ccc3c(c2)[C@@H]2O[C@H]3c3ccc(N4CCCC4)cc32)cc1` (single isomer, unassigned) [Example 236], the IC50 is 2 nM.

Turning to `Nc1noc2c(CNC(=O)c3ccc4c(c3)[C@@H]3O[C@H]4c4ccc(-c5ccccc5F)cc43)cccc12` (single isomer, unassigned) [Example 237], the IC50 is 10000 nM. Consider `N=C(N)c1ccc(CNC(=O)c2ccc3c(c2)[C@@H]2O[C@H]3c3ccccc32)cc1` (single isomer, unassigned) [Example 238], for which the IC50 was 324 nM. In the case of `CCN(c1ccc2c(c1)[C@H]1O[C@@H]2c2ccc(C(=O)NCc3c(C)cc(N)nc3C)cc21)c1ccccc1F` (single isomer, unassigned) [Example 239] it was 234 nM; in that of `Cc1c(CNC(=O)c2ccc3c(c2)[C@@H]2O[C@H]3c3ccc(-c4ccccc4F)cc32)cnc(N)c1C` (single isomer, unassigned) [Example 242], 2750 nM; in that of `N=C(N)c1ccc(NC(=O)c2ccc3c(c2)[C@@H]2O[C@H]3c3ccc(-c4ccc(F)cc4F)cc32)cc1` (single isomer, unassigned) [Example 244], 10700 nM.

Take `Nc1noc2ccc(NC(=O)c3ccc4c(c3)[C@@H]3O[C@H]4c4ccc(-c5ccc(F)cc5F)cc43)cc12` (single isomer, unassigned) [Example 245]: the IC50 was 10000 nM. Take `Cc1nc(N)cc(C(F)(F)F)c1CNC(=O)c1ccc2c(c1)[C@@H]1O[C@H]2c2ccc(-c3ccc(F)cc3F)cc21` (single isomer, unassigned) [Example 246]: the IC50 is 10700 nM. As to `Cc1nc(N)cc(C2CCOCC2)c1CNC(=O)c1ccc2c(c1)[C@@H]1O[C@H]2c2ccc(-c3ccc(F)cc3F)cc21` (single isomer, unassigned) [Example 247], the IC50 was 5.01 nM.

Consider `CCc1cc(N)nc(CC)c1CNC(=O)c1ccc2c(c1)[C@@H]1O[C@H]2c2ccc(-c3ccc(F)cc3F)cc21` (single isomer, unassigned) [Example 248], for which the IC50 was 2570 nM. Under `Cc1cc(N)nc(C)c1CNC(=O)c1ccc2c(c1)[C@@H]1O[C@H]2c2ccc(N(c3cccc(F)c3)C(C)C)cc21` (single isomer, unassigned) [Example 249] stands 93.3 nM. `CCCN(c1cccc(F)c1)c1ccc2c(c1)[C@H]1O[C@@H]2c2ccc(C(=O)NCc3c(C)cc(N)nc3C)cc21` (single isomer, unassigned) [Example 250]: the IC50 was 33.1 nM.

For `Cc1cc(N)nc(C)c1CNC(=O)c1ccc2c(c1)[C@@H]1O[C@H]2c2ccc(-c3cn4ccccc4n3)cc21` (single isomer, unassigned) [Example 252], the IC50 is 93.3 nM.

Regarding `COc1ccc(CNC(=O)c2ccc3c(c2)[C@@H]2O[C@H]3c3ccc(-c4ccccc4F)cc32)cc1` (single isomer, unassigned) [Example 253], the IC50 is 100000 nM. Under `Cc1cc(N)nc(C)c1CNC(=O)c1ccc2c(c1)[C@@H]1O[C@H]2c2ccc(Cc3ccccc3)cc21` (single isomer, unassigned) [Example 254] stands 19.1 nM; under `N=C(N)c1cc(F)c(CNC(=O)c2ccc3c(c2)[C@@H]2O[C@H]3c3ccc(-c4ccc(F)cc4F)cc32)c(F)c1` (single isomer, unassigned) [Example 256], 0.759 nM; under `Nc1cc(C2CC2)c(CNC(=O)c2ccc3c(c2)[C@@H]2O[C@H]3c3ccc(-c4ccc(F)cc4F)cc32)c(C2CC2)n1` (single isomer, unassigned) [Example 257], 200000 nM. For the compound `N=C(N)c1cccc(NC(=O)c2ccc3c(c2)[C@@H]2O[C@H]3c3ccc(-c4ccc(F)cc4F)cc32)c1` (single isomer, unassigned) [Example 258], the IC50 was 10000 nM. As for `N=C(N)c1ccc(CNC(=O)c2ccc3c(c2)[C@@H]2O[C@H]3c3ccc(C4CC4)cc32)cc1` (single isomer, unassigned) [Example 259], the IC50 was 2 nM. For `Cc1cc(N)nc(C)c1CNC(=O)c1ccc2c(c1)[C@@H]1O[C@H]2c2ccc(N(c3cccc(F)c3)S(C)(=O)=O)cc21` (single isomer, unassigned) [Example 260], the IC50 was 186 nM. Turning to `Cc1cc(N)nc(C)c1CNC(=O)c1ccc2c(c1)[C@@H]1O[C@H]2c2ccc(N(C)c3cccc(Cl)c3)cc21` (single isomer, unassigned) [Example 262], the IC50 was 8.91 nM. Consider `COc1ccc(Cl)c(CNC(=N)c2ccc3c(c2)[C@@H]2O[C@H]3c3ccc(-c4ccc(F)cc4F)cc32)c1F` (single isomer, unassigned) [Example 264], for which the IC50 was 2400 nM. Take `Cc1nc(N)cc(C(C)C)c1CNC(=O)c1ccc2c(c1)[C@@H]1O[C@H]2c2ccc(-c3cc[n+]([O-])cc3F)cc21` (single isomer, unassigned) [Example 265]: the IC50 was 91.2 nM. In the case of `Cc1nc(N)cc(C2=CCOC2)c1CNC(=O)c1ccc2c(c1)[C@@H]1O[C@H]2c2ccc(-c3ccc(F)cc3F)cc21` (single isomer, unassigned) [Example 267] it was 97.7 nM; in that of `N=C(N)c1ccc(CNC(=O)c2ccc3c(c2)[C@@H]2O[C@H]3c3ccc(-c4ccc(F)cc4F)cc32)cn1` (single isomer, unassigned) [Example 268], 5.01 nM.

`CCOC(=O)N=C(N)c1cc(F)c(CNC(=O)c2ccc3c(c2)[C@@H]2O[C@H]3c3ccc(-c4ccc(F)cc4F)cc32)c(F)c1` (single isomer, unassigned) [Example 269]: the IC50 is 1230 nM. Regarding `O=C(NCc1ccc(-c2noc(=O)[nH]2)cc1)c1ccc2c(c1)[C@@H]1O[C@H]2c2ccc(-c3ccc(F)cc3F)cc21` (single isomer, unassigned) [Example 270], the IC50 is 100000 nM. `CCOC(=O)N=C(N)c1ccc(CNC(=O)c2ccc3c(c2)[C@@H]2O[C@H]3c3ccc(-c4ccc(F)cc4F)cc32)cc1` (single isomer, unassigned) [Example 273]: the IC50 is 6030 nM.

As to `N=C(N)c1cc(F)c(CNC(=O)c2ccc3c(c2)[C@@H]2O[C@H]3c3ccc(-c4nccs4)cc32)c(F)c1` (single isomer, unassigned) [Example 275], the IC50 is 2 nM. As to `CC(C)(O)c1ccc2c(c1)[C@H]1O[C@@H]2c2ccc(C(=O)NCc3ccc(C(=N)N)cc3)cc21` (single isomer, unassigned) [Example 277], the IC50 is 35.5 nM. Turning to `Cc1nc(N)cc(C2CC2)c1CNC(=O)c1ccc2c(c1)[C@@H]1O[C@H]2c2ccc(-c3cc[n+]([O-])cc3F)cc21` (single isomer, unassigned) [Example 278], the IC50 is 34.7 nM. Turning to `Cc1ccc(C(=O)c2ccc3c(c2)[C@H]2O[C@@H]3c3ccc(C(=O)NCc4c(C)cc(N)nc4C)cc32)o1` (single isomer, unassigned) [Example 279], the IC50 is 22.9 nM. Under `N=C(N)c1cc(F)c(CNC(=O)c2ccc3c(c2)[C@@H]2O[C@H]3c3ccc(C4CC4)cc32)c(F)c1` (single isomer, unassigned) [Example 280] stands 0.759 nM. Regarding `CC(F)(F)c1ccc2c(c1)[C@H]1O[C@@H]2c2ccc(C(=O)NCc3ccc(C(=N)N)cc3)cc21` (single isomer, unassigned) [Example 281], the IC50 was 10 nM. `N#Cc1cc(NC(=N)c2ccc3c(c2)[C@@H]2O[C@H]3c3ccc(-c4ccc(F)cc4F)cc32)ccc1F` (single isomer, unassigned) [Example 283]: the IC50 was 100000 nM.

Regarding `CC(C)(F)c1ccc2c(c1)[C@H]1O[C@@H]2c2ccc(C(=O)NCc3ccc(C(=N)N)cc3)cc21` (single isomer, unassigned) [Example 284], the IC50 was 6.31 nM. Consider `C=C(C)c1ccc2c(c1)[C@H]1O[C@@H]2c2ccc(C(=O)NCc3c(F)cc(C(=N)N)cc3F)cc21` (single isomer, unassigned) [Example 285], for which the IC50 was 1 nM.

For the compound `N=C(N)c1cc(F)c(CNC(=O)c2ccc3c(c2)[C@@H]2O[C@H]3c3ccc(-n4cccn4)cc32)c(F)c1` (single isomer, unassigned) [Example 286], the IC50 is 2.45 nM.

For `Cc1nc(N)cc(C(C)C)c1CNC(=O)c1ccc2c(c1)[C@@H]1O[C@H]2c2ccc(-c3c(F)ccc[n+]3[O-])cc21` (single isomer, unassigned) [Example 289], the IC50 is 123 nM.

Turning to `N=C(N)c1ccc(CNC(=O)c2ccc3c(c2)[C@@H]2O[C@H]3c3ccc(-c4ccccc4F)cc32)c(F)c1` (single isomer, unassigned) [Example 290], the IC50 is 1 nM. For the compound `NC(=O)c1cccc(CNC(=O)c2ccc3c(c2)[C@@H]2O[C@H]3c3ccc(-c4ccc(F)cc4F)cc32)c1` (single isomer, unassigned) [Example 292], the IC50 is 100000 nM.

Consider `Nc1nccc2c(CNC(=O)c3ccc4c(c3)[C@@H]3O[C@H]4c4ccc(-c5ccccc5F)cc43)c(Cl)ccc12` (single isomer, unassigned) [Example 294], for which the IC50 was 20.9 nM. Consider `Nc1nccc2cc(Cl)c(CNC(=O)c3ccc4c(c3)[C@@H]3O[C@H]4c4ccc(-c5ccccc5F)cc43)cc12` (single isomer, unassigned) [Example 295], for which the IC50 was 10000 nM.

Take `N=C(N)c1cc(F)c(CNC(=O)c2ccc3c(c2)[C@@H]2O[C@H]3c3ccc(CCC(F)(F)F)cc32)c(F)c1` (single isomer, unassigned) [Example 296]: the IC50 was 1 nM. For the compound `CC(C)c1ccc2c(c1)[C@H]1O[C@@H]2c2ccc(C(=O)NCc3c(F)cc(C(=N)N)cc3F)cc21` (single isomer, unassigned) [Example 298], the IC50 is 2 nM. In the case of `Cc1ccc2c(N)nccc2c1CNC(=O)c1ccc2c(c1)[C@@H]1O[C@H]2c2ccc(-c3ccccc3F)cc21` (single isomer, unassigned) [Example 299] it was 30.9 nM; in that of `N=C(N)c1ccc(CNC(=O)c2ccc3c(c2)[C@@H]2O[C@H]3c3ccc(C4CC4)cc32)c(F)c1` (single isomer, unassigned) [Example 302], 1 nM.
